Like-named read-outs stand apart in the source and are kept apart here. A value given as a limit tells only on which side of the number the result lay.

These results are taken from US10781183B2, “Small molecule inducers of reactive oxygen species and inhibitors of mitochondrial activity” (The Regents of the University of Michigan, priority 2016, dated 2020).

One series relates to BxPC-3 cells. Description: MTT cytotoxicity assay, BxPC-3. Format: cell-based. The conditions noted are these: Homo sapiens, three independent experiments. Here is the method:
(§1) MiaPaCa-2, Panc-1 and BxPC-3 pancreatic cancer cell lines were obtained from the ATCC. Normal pancreatic cells HPDE and HPNE were kindly provided (Translational Oncology Program, University of […], Ann Arbor, Mich.). Gemcitabine resistant cell line MiaPaCa-2-GR (gemcitabine resistant) was kindly provided (Department of Pathology, Wayne State University, Detroit, Mich.). All cell lines were cultured as monolayer and maintained in RPMI1640 supplemented with 10% fetal bovine serum (FBS) in a humidified atmosphere with 5% CO2 at 37° C. MiaPaCa-2-GR culture was supplemented with 200 nM gemcitabine.
(§2) Cytotoxicity of compounds was evaluated with 3-(4,5-dimethylthiazol-2-yl)-2,5-diphenyltetrazolium bromide (MTT) assay. Cells were placed in 96-well plate at 3000-8000 cells/well. After overnight attachment, compounds were added to the wells at sequential dilutions (30 nM-10 μM for most cell lines). After 72 h treatment, MTT was added into the media to a final concentration of 300 μg/mL. Cells were incubated for 3 h at 37° C., and the insoluble formazan converted by viable cells were dissolved in 150 μL of DMSO. Absorbance at 570 nm was read by microplate reader (Molecular devices, Sunnyvale, Calif.), and inhibition of cell proliferation was calculated using the following formula: Inhibition of cell proliferation (%)=(1−ODtreatment/ODcontrol)×100%

A further series deals with Panc-1 cells. In words: MTT cytotoxicity assay, Panc-1. The conditions noted are these: Homo sapiens, three independent experiments. Format: cell-based. Here is the method:
as §1, §2

A further series relates to MiaPaCa-2 cells. Description: MTT cytotoxicity assay, MiaPaCa-2. The conditions noted are these: Homo sapiens, MTT assay, Mean ± SD, three independent experiments. Format: cell-based. Here is the method: as §1, §2
Setting [1] is: BXPC-3, 72 h, Table 1, 72 h, Mean ± SD.
The mark [2] stands for this setting: BXPC-3, Table 2, Mean ± SD, read-out: IC 50 BxPC-3.
Setting [3] is: PANC-1, 72 h, Table 1, 72 h, Mean ± SD.
Where [4] appears, read: PANC-1, Table 2, Mean ± SD, read-out: IC 50 Panc-1.
Setting [5] is: MIA PaCa-2, 72 h, Table 1, 72 h.
[6] abbreviates: MIA PaCa-2, Table 2, read-out: IC 50 MiaPaCa-2.

In turn, `O=C1C=CC(=O)c2ncncc21` [QD323, quinazoline-5,8-dione] yielded a melting point of over 320 °C.
On to `O=C1C(Nc2ccc(Oc3ccccc3)cc2)=CC(=O)c2ncncc21` [QD324, 6-((4-phenoxyphenyl)amino)quinazoline-5,8-dione], for which the melting point was 169 to 171 °C. The IC50 with BxPC-3 cells (setting [1]) stood at 3.6 ± 0.4 µM. In the series on BxPC-3 cells (setting [2]), the IC50 was determined as 3.6 ± 0.4 µM. The molecule further had an IC50 with Panc-1 cells (setting [3]) of 1800 ± 200 nM. Also, the IC50 in the series with Panc-1 cells (setting [4]) was determined as 1800 ± 200 nM. The same molecule returned an IC50 in the series with MiaPaCa-2 cells (setting [5]) of 3.7 ± 0.7 µM. In addition, in the series on MiaPaCa-2 cells (setting [6]), the IC50 is 3.7 ± 0.7 µM.
`O=C1C(Nc2ccc(OC(F)(F)F)cc2)=CC(=O)c2ncncc21` [QD327, 6-((4-(trifluoromethoxy)phenyl)amino)quinazoline-5,8-dione] yielded a melting point of 114 °C. Moreover, the IC50 with BxPC-3 cells (setting [1]) was 0.9 ± 0.1 µM. Further, the IC50 in the series on BxPC-3 cells (setting [2]) came out at 0.9 ± 0.1 µM. For the same molecule, in the series with Panc-1 cells (setting [3]), the IC50 turned out to be 900 ± 100 nM. Besides, in the series with Panc-1 cells (setting [4]), the IC50 came out at 900 ± 100 nM. This molecule also returned an IC50 in the series with MiaPaCa-2 cells (setting [5]) of 1.4 ± 0.2 µM. For the same molecule, in the series on MiaPaCa-2 cells (setting [6]), the IC50 amounted to 1.4 ± 0.2 µM.
Take `NS(=O)(=O)c1ccc(NC2=CC(=O)c3ncncc3C2=O)cc1` [QD328, 4-((5,8-dioxo-5,8-dihydroquinazolin-6-yl)amino)benzenesulfonamide]: the melting point is over 320 °C. Further, in the series with BxPC-3 cells (setting [1]), the IC50 is over 10 µM. The IC50 with BxPC-3 cells (setting [2]) is over 10 µM. The molecule also had an IC50 in the series with Panc-1 cells (setting [3]) of over 10000 nM. Besides, the IC50 in the series with Panc-1 cells (setting [4]) is over 10000 nM. This molecule also returned an IC50 in the series on MiaPaCa-2 cells (setting [5]) of over 10 µM. The IC50 in the series on MiaPaCa-2 cells (setting [6]) is over 10 µM.
Consider `O=C1C(Nc2ccc(CO)cc2)=CC(=O)c2ncncc21` [QD329, 6-((4-(hydroxymethyl)phenyl)amino)quinazoline-5,8-dione], for which the IC50 in the series with BxPC-3 cells (setting [1]) was 2.7 ± 0.3 µM; in the series on BxPC-3 cells (setting [2]), 5.7 ± 0.3 µM; with Panc-1 cells (setting [3]) it was 1000 ± 200 nM; with Panc-1 cells (setting [4]), 1000 ± 200 nM; in the series with MiaPaCa-2 cells (setting [5]), 3.5 ± 1.3 µM; in the series on MiaPaCa-2 cells (setting [6]) it was 3.5 ± 1.3 µM.
`NC(=O)c1ccc(NC2=CC(=O)c3ncncc3C2=O)cc1` [QD330, 4-((5,8-dioxo-5,8-dihydroquinazolin-6-yl)amino)benzamide] yielded a melting point of over 320 °C. This molecule also yielded an IC50 in the series with BxPC-3 cells (setting [1]) of over 10 µM. Moreover, the IC50 in the series on BxPC-3 cells (setting [2]) was over 10 µM. The molecule also showed an IC50 with Panc-1 cells (setting [3]) of 6300 ± 300 nM. Moreover, in the series with Panc-1 cells (setting [4]), the IC50 was found to be 6300 ± 300 nM. The IC50 in the series with MiaPaCa-2 cells (setting [5]) was 8 ± 0.9 µM. Also, in the series with MiaPaCa-2 cells (setting [6]), the IC50 is 8 ± 0.9 µM.
The molecule `COC(=O)c1ccc(NC2=CC(=O)c3ncncc3C2=O)cc1` [QD331, Methyl 4-((5,8-dioxo-5,8-dihydroquinazolin-6-yl)amino)benzoate] showed a melting point of 226 to 230 °C. In addition, in the series on BxPC-3 cells (setting [1]), the IC50 was 5.8 ± 0.3 µM. In addition, the IC50 in the series with BxPC-3 cells (setting [2]) came out at 5.8 ± 0.3 µM. For the same molecule, the IC50 in the series on Panc-1 cells (setting [3]) stood at 1100 ± 400 nM. The IC50 in the series with Panc-1 cells (setting [4]) was found to be 1100 ± 400 nM. The IC50 in the series with MiaPaCa-2 cells (setting [5]) amounted to 2.2 ± 0.4 µM. Besides, the IC50 in the series on MiaPaCa-2 cells (setting [6]) was found to be 2.2 ± 0.4 µM.
For the molecule `CCOC(=O)c1ccc(NC2=CC(=O)c3ncncc3C2=O)cc1` [QD332, Ethyl 4-((5,8-dioxo-5,8-dihydroquinazolin-6-yl)amino)benzoate], the melting point was in the range of 206 to 207 °C. This molecule yielded an IC50 in the series on BxPC-3 cells (setting [1]) of 5.9 ± 0.1 µM. Also, the IC50 in the series with BxPC-3 cells (setting [2]) was 5.9 ± 0.1 µM. This molecule showed an IC50 with Panc-1 cells (setting [3]) of 1600 ± 300 nM. Besides, in the series on Panc-1 cells (setting [4]), the IC50 was found to be 1600 ± 300 nM. In the series with MiaPaCa-2 cells (setting [5]), this molecule had an IC50 of 5.5 ± 1.5 µM. Further, the IC50 in the series with MiaPaCa-2 cells (setting [6]) was determined as 5.5 ± 1.5 µM.
Consider `O=C1C(Nc2cccc(B(O)O)c2)=CC(=O)c2ncncc21` [QD333, (3-((5,8-dioxo-5,8-dihydroquinazolin-6-yl)amino)phenyl)boronic acid], for which the melting point was in the range of 208 to 210 °C. The IC50 in the series on BxPC-3 cells (setting [1]) was over 10 µM. Further, the IC50 in the series on BxPC-3 cells (setting [2]) was over 10 µM. This molecule also returned an IC50 in the series with Panc-1 cells (setting [3]) of 9000 ± 1000 nM. For the same molecule, the IC50 with Panc-1 cells (setting [4]) is 9000 ± 1000 nM. The molecule further came in with an IC50 in the series with MiaPaCa-2 cells (setting [5]) of over 10 µM. In the series on MiaPaCa-2 cells (setting [6]), the IC50 was over 10 µM.
As to `O=C(NCCC[P+](c1ccccc1)(c1ccccc1)c1ccccc1)c1ccc(NC2=CC(=O)c3ncncc3C2=O)cc1` [QD340, (3-(4-((5,8-dioxo-5,8-dihydroquinazolin-6-yl)amino)benzamido)propyl) triphenylphosphonium bromide], the IC50 in the series on BxPC-3 cells (setting [1]) worked out at 21.5 ± 2.3 µM; in the series on BxPC-3 cells (setting [2]), 21.5 ± 2.3 µM; in the series with Panc-1 cells (setting [3]), 11700 ± 1500 nM; with Panc-1 cells (setting [4]), 11700 ± 1500 nM; with MiaPaCa-2 cells (setting [5]), 15.3 ± 2.5 µM; in the series on MiaPaCa-2 cells (setting [6]), 15.3 ± 2.5 µM.
Consider `COc1ccc(NC2=CC(=O)c3ncncc3C2=O)cc1OC` [QD355, 6-((3,4-dimethoxyphenyl)amino)quinazoline-5,8-dione], for which the IC50 amounted to 1.5 ± 0.2 µM with BxPC-3 cells (setting [1]); 1.5 ± 0.2 µM with BxPC-3 cells (setting [2]); 900 ± 300 nM in the series with Panc-1 cells (setting [3]); 900 ± 300 nM with Panc-1 cells (setting [4]); 1.8 ± 0.1 µM with MiaPaCa-2 cells (setting [5]); 1.8 ± 0.1 µM in the series on MiaPaCa-2 cells (setting [6]).
As for `COc1cc(NC2=CC(=O)c3ncncc3C2=O)cc(OC)c1` [QD357, 6-((3,5-dimethoxyphenyl)amino)quinazoline-5,8-dione], the IC50 with BxPC-3 cells (setting [1]) was determined as 16.3 ± 1.5 µM; in the series with BxPC-3 cells (setting [2]), 16.3 ± 1.5 µM; in the series on Panc-1 cells (setting [3]), 7200 ± 800 nM; in the series on Panc-1 cells (setting [4]), 7200 ± 800 nM; in the series with MiaPaCa-2 cells (setting [5]), 7.7 ± 2 µM; in the series on MiaPaCa-2 cells (setting [6]) it was 7.7 ± 2 µM.
For the molecule `O=C(NCCC[P+](c1ccccc1)(c1ccccc1)c1ccccc1)c1cccc(NC2=CC(=O)c3ncncc3C2=O)c1` [QD359, (3-(3-((5,8-dioxo-5,8-dihydroquinazolin-6-yl)amino)benzamido)propyl) triphenylphosphonium bromide], the IC50 with BxPC-3 cells (setting [1]) is 21.3 ± 2.5 µM; in the series on BxPC-3 cells (setting [2]), 21.3 ± 2.5 µM; in the series with Panc-1 cells (setting [3]), 14300 ± 1500 nM; in the series with Panc-1 cells (setting [4]), 14300 ± 1500 nM; in the series on MiaPaCa-2 cells (setting [5]) it was 16.3 ± 3.6 µM; in the series on MiaPaCa-2 cells (setting [6]) it was 16.3 ± 3.5 µM.
Molecule `O=C1C(Nc2cccc(-c3ccccc3)c2)=CC(=O)c2ncncc21` [QD385, 6-(Biphenyl-3-ylamino)quinazoline-5,8-dione] showed a melting point of 199 to 200 °C.
Molecule `O=C1C(Nc2ccc(-c3ccc(Cl)cc3)cc2)=CC(=O)c2ncncc21` [QD386, 6-(4′-Chlorobiphenyl-4-ylamino)quinazoline-5,8-dione] registered a melting point of 292 to 293 °C.
The same measure, in the same setting: the value for `O=C1C(Nc2ccc(-c3cc(Cl)cc(Cl)c3)cc2)=CC(=O)c2ncncc21` [QD387, 6-(3′,5′-Dichlorobiphenyl-4-ylamino)quinazoline-5,8-dione] was 260 to 261 °C.
The same measure, in the same setting: the value for `O=C1C(Nc2ccc(N3CCCCC3)cc2)=CC(=O)c2ncncc21` [QD388, 6-(4-(Piperidin-1-yl)phenylamino)quinazoline-5,8-dione] was 209 °C; that for `O=C1C(Nc2ccc(N3CCOCC3)cc2)=CC(=O)c2ncncc21` [QD389, 6-(4-Morpholinophenylamino)quinazoline-5,8-dione] was 226 to 227 °C.
With `O=C1C(Nc2cccc3c2-c2ccccc2C3)=CC(=O)c2ncncc21` [QD390, 6-(9H-Fluoren-4-ylamino)quinazoline-5,8-dione], the melting point is 217 °C.
Same read-out and setting: the figure for `O=C1C(Nc2ccc3c(c2)Cc2ccccc2-3)=CC(=O)c2ncncc21` [QD391, 6-(9H-Fluoren-2-ylamino)quinazoline-5,8-dione] is 236 to 237 °C; for `CCc1ccc(-c2ccc(NC3=CC(=O)c4ncncc4C3=O)cc2)cc1` [QD392, 6-(4′-Ethylbiphenyl-4-ylamino)quinazoline-5,8-dione] it is 247 °C.
As to `O=C1C(Nc2ccc(C3CCCCC3)cc2)=CC(=O)c2ncncc21` [QD393, 6-(4-Cyclohexylphenylamino)quinazoline-5,8-dione], the melting point stood at 234 °C.
As for `O=C1C(Nc2ccc(-c3ccccn3)cc2)=CC(=O)c2ncncc21` [QD395, 6-(4-(Pyridin-2-yl)phenylamino)quinazoline-5,8-dione], the melting point was determined as 239 °C.
